Data reported in PMC5809559, “DYRK1A inhibition and cognitive rescue in a Down syndrome mouse model are induced by new fluoro-DANDY derivatives” (Scientific Reports, 2018).
“And” between values parts separate entries of the source, which are not always exact repeats. Identical values can stand only once. Like-named read-outs stand apart in the source and are kept apart here.

Experiments:
[1] = parameters: method as in PMID 27194478; details: other drugs acting on the central nervous system; cited from earlier work
[2] = biological target: T1, DYRK1A catalytic domain (DYRK1A-ΔC) (Rattus norvegicus, UniProt Q63470); assay: In vitro DYRK1A kinase inhibition, UFLC assay with fluorescent peptide substrate; format: biochemical; details: read-out: IC50, in vitro inhibition of DYRK1A
T1 construct: The cDNA coding for the catalytic domain (residues 1-502) of rat DYRK1A; 6xHis; made in house; host or cells: E. coli BL21(DE3), pET28

DYRK1A = biological target: T2, DYRK1A (Homo sapiens, UniProt Q13627); assay: Inhibition of tau phosphorylation by DYRK1A in cellulo (HEK293 co-transfected with DYRK1A and Tau, ClariCELL ELISA phospho-TauT212); format: cell-based
T2 construct: vectors encoding full-length human DYRK1A and Tau; host or cells: HEK293

KB cells = assay: KB cell proliferation / cytotoxicity (CellTiter-Blue); format: cell-based; details: Homo sapiens; for inhibition at 10 µM / inhibition at 1 µM: 72 h; for inhibition at 10 µM: 10^−5 M, read-out: % Growth inhibition 10^−5 M; for inhibition at 1 µM: 10^−6 M, read-out: % Growth inhibition 10^−6 M
Description: Cancer cell lines were obtained from the American Type Culture Collection (Rockville, MD, USA) and were cultured according to the supplier’s instructions. Briefly, human KB epidermal carcinoma cells were grown in Dulbecco minimal essential medium (DMEM) containing 4.5 g/L glucose supplemented with 10% fetal calf serum (FCS) and 1% glutamine, 100 UI penicillin, 100 µg/mL streptomycin and 1.5 µg/mL fungizone and maintained at 37 °C in a humidified atmosphere containing 5% CO2. Cell viability was assessed using Promega CellTiter-Blue TM reagent according to the manufacturer’s instructions. Cells were seeded in 96-well plates (5 × 10^3 cells/well) containing […]. After 24 h of culture, the cells were supplemented with […] of the studied compound dissolved in DMSO (less than 0.1% in each preparation). After 72 h of incubation, […] of resazurin was added for 2 h before recording fluorescence (λex = 560 nm, λem = 590 nm) using a Victor microtiter plate fluorimeter (Perkin-Elmer, USA).

[3] = 3,5-diaryl-7-azaindoles 5a-5g, Fig. 5
[4] = 3,5-diaryl-7-azaindoles 4a-4f, Fig. 4

SMILES	IC50 [2, 3]	IC50 [2, 4] [nM]	also measured
OCCN1CCN(CCCN2c3ccccc3Sc3ccc(Cl)cc32)CC1 [perphenazine]			Kp (brain concentration/plasma concentration) [1]: 7.12
CNCCC(Oc1ccc(C(F)(F)F)cc1)c1ccccc1 (centres unmarked) [fluoxetine]			Kp (brain concentration/plasma concentration) [1]: 5.23
COc1ccc(-c2cnc3[nH]cc(-c4ccc(F)cc4)c3c2)c(OC)c1 [Compound 4b]		920	
COc1ccc(-c2c[nH]c3ncc(-c4ccc(OCc5ccccc5)cc4)cc23)cc1F [Compound 4e]		6090	
COc1ccc(-c2cnc3[nH]cc(-c4ccc(F)c(F)c4)c3c2)cc1OC [Compound 4c]		5260	
COc1ccc(-c2c[nH]c3ncc(-c4ccc(O)cc4)cc23)cc1F [Compound 5e]	41.5 nM		inhibition at 10 µM (KB cells): 66 ± 3%; inhibition at 1 µM (KB cells): 30 ± 1%
COc1ccc(-c2c[nH]c3ncc(-c4ccc(OCc5ccccc5)c(OCc5ccccc5)c4)cc23)cc1OC [Compound 4f]		18500	
CC(NC(C)(C)C)C(=O)c1cccc(Cl)c1 (centres unmarked) [buproprion]			Kp (brain concentration/plasma concentration) [1]: 4.97
COc1ccc(-c2cnc3[nH]cc(-c4ccc(F)cc4)c3c2)cc1OC [Compound 4a]		1430	
COc1ccc(-c2cnc3[nH]cc(-c4ccc(F)c(F)c4)c3c2)c(OC)c1 [Compound 4d]		37400	

More lines, main results first:

IC50 [2, 3]	IC50 [2, 4] [nM]	SMILES	also measured
232 nM		Oc1ccc(-c2cnc3[nH]cc(-c4ccc(F)c(F)c4)c3c2)c(O)c1 [Compound 5d]	
9.34 nM and 9.3 nM		Oc1ccc(-c2cnc3[nH]cc(-c4ccc(O)c(F)c4)c3c2)cc1 [Compound 5g]	IC50 (DYRK1A; HEK293 transfected with DYRK1A and tau, 2 h incubation): 380 nM; Ratio between in cellulo and in vitro inhibitory potencies (DYRK1A; tau phosphorylation IC50 / in vitro DYRK1A IC50): 41; inhibition at 10 µM (KB cells; KB): 95 ± 1%; inhibition at 1 µM (KB cells; KB): 46 ± 1%; IC50 (KB cells; estimated, read-out: estimated IC50, KB cell growth inhibition): ~1000 nM
191 nM		Oc1ccc(-c2cnc3[nH]cc(-c4ccc(F)cc4)c3c2)c(O)c1 [Compound 5b]	
56.6 nM		Oc1ccc(-c2cnc3[nH]cc(-c4ccc(F)c(F)c4)c3c2)cc1O [Compound 5c]	inhibition at 1 µM (KB cells; KB): 6 ± 2%
476 nM		COc1ccc(-c2c[nH]c3ncc(-c4ccc(O)c(O)c4)cc23)cc1OC [Compound 5f]	
